Data set [1] deals with RAC-alpha serine/threonine-protein kinase (Homo sapiens, UniProt P31749). Description: Binding affinity to AKT PH-domain (unknown origin) at 0.01 to 50 uM by SPR spectroscopy. On the technique in general: In SPR one partner is held on a chip, and binding of the other changes the refractive index at the surface.
A short description of data set [2]: Terminal half life in iv dosed mouse. It counts as ADME, organism-based. The following applies: in vivo, read-out: beta t1/2.
Data set [3] concerns HCC95. Briefly: Growth inhibition of human HCC95 cells incubated for 3 days. Conditions: HCC95, 72 h. The data set is classed as functional, cell-based.
A short description of data set [4]: Growth inhibition of human […] cells incubated for 3 days. The data set is classed as functional. Conditions: 72 h.
The test system of data set [5] is NCI-H2122. Description: Growth inhibition of human NCI-H2122 cells incubated for 3 days. The data set is classed as functional, cell-based. Conditions: NCI-H2122, 72 h.
Data set [6] relates to HCC515. Briefly: Growth inhibition of human HCC515 cells incubated for 3 days. It counts as functional, cell-based. The following applies: HCC515, 72 h.
Data set [7] addresses T1, Connector enhancer of kinase suppressor of ras 1 (Homo sapiens) (UniProt Q969H4).
T1 sequence (whole entry): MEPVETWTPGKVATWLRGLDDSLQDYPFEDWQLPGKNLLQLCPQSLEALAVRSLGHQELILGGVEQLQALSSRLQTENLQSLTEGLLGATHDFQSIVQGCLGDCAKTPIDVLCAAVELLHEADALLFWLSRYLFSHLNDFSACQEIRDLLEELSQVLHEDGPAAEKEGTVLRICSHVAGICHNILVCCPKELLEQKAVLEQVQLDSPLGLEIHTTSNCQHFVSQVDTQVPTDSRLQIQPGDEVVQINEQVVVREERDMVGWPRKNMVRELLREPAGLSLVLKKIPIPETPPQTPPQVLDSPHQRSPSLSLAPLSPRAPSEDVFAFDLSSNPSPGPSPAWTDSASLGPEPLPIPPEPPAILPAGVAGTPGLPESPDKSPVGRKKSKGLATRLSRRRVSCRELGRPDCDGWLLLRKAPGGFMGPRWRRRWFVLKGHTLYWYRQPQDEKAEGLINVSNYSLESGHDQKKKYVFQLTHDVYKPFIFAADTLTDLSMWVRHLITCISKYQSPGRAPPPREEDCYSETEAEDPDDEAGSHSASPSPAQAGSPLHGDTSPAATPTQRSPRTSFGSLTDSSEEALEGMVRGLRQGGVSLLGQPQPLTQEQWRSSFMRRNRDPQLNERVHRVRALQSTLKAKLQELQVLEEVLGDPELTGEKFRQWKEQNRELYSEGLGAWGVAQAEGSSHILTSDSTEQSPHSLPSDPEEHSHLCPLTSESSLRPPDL
Description: Inhibition of GFP-tagged CNKSR1 (unknown origin) expressed in HEK293T cells assessed as blocking of membrane colocalization of CNKSR1 and mutant-KRas at plasma membrane at 50 uM incubated for 4 hrs by confocal imaging assay. The data set is classed as cell-based.

Data set [8] deals with T1, Connector enhancer of kinase suppressor of ras 1 (Homo sapiens). Description: Inhibition of GFP-tagged CNKSR1 (unknown origin) expressed in HEK293T cells assessed as reduction in total mutant-KRas protein at 50 uM incubated for 4 hrs by confocal imaging assay. It counts as cell-based.
Data set [9] shares this target. Description: Inhibition of GFP-tagged CNKSR1 (unknown origin) expressed in HEK293T cells assessed as inhibition of direct binding of CNKSR1 to mut-KRAS at 50 uM incubated for 4 hrs by fluorescence lifetime imaging microscopy. It counts as cell-based.
For data set [10] the target is unchanged. Briefly: Inhibition of CNKSR1 (unknown origin) assessed as reduction in inhibition of KRas signaling effectors by measuring p-AKT levels at 20 uM by cell based assay.
For data set [11] the target is unchanged. Briefly: Inhibition of CNKSR1 (unknown origin) assessed as reduction in inhibition of KRas signaling effectors by measuring p-MAPK levels at 20 uM by cell based assay.
Data set [12] has the same target. Briefly: Inhibition of CNKSR1 (unknown origin) assessed as reduction in inhibition of KRas signaling effectors by measuring GTP-RalA levels at 20 uM by cell based assay.
Data set [13] relates to A549. Description: Antitumor activity against human A549 cells xenografted in nu/nu mouse assessed as reduction in tumor volume at 200 mg/kg, ip dosed daily for 8 days. It counts as functional, organism-based. On the technique in general: In xenograft studies the graft and the host belong to different species.
Data set [14] relates to A549. Description: Antitumor activity against human A549 cells xenografted in nu/nu mouse assessed as reduction in tumor volume at 200 mg/kg, ip dosed daily for 8 days co-treated with 75 mg/kg, po erlotinib. It counts as functional, organism-based.
Data set [15] deals with T2, Connector enhancer of kinase suppressor of ras 1 (Homo sapiens, UniProt Q969H4).
T2 sequence (Q969H4 whole entry): T1 sequence (whole entry)
Briefly: Binding affinity to CNKSR1 PH-domain (unknown origin) by SPR spectroscopy.

Data set [16] relates to HCC515. Description: Growth inhibition of human HCC515 cells relative to control. The data set is classed as functional, cell-based.
Data set [17] concerns NCI-H2122. Briefly: Growth inhibition of human NCI-H2122 cells relative to control. It counts as functional, cell-based.
For data set [18], the system named is A549. Briefly: Growth inhibition of human A549 cells relative to control. It counts as functional, cell-based.
Data set [19] concerns NCI-H1373. Description: Growth inhibition of human NCI-H1373 cells relative to control. It counts as functional, cell-based.
For data set [20], the target named is T3, 3-phosphoinositide-dependent protein kinase 1 (Homo sapiens) (UniProt O15530).
T3 sequence (whole entry): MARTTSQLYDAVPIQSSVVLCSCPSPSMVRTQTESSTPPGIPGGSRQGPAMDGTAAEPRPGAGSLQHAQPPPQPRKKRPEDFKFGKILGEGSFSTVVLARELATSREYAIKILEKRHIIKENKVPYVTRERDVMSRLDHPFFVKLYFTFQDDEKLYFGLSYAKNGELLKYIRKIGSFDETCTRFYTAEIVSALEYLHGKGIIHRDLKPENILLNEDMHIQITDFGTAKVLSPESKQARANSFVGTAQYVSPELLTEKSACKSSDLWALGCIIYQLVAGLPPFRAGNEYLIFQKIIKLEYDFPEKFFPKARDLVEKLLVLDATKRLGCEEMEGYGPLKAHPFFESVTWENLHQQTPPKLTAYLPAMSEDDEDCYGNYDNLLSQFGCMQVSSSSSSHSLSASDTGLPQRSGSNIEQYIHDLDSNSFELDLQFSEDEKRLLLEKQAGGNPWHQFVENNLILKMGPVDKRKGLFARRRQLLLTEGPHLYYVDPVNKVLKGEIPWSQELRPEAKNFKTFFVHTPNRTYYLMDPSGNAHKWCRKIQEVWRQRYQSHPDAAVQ
Briefly: Binding affinity to PDPK1 PH-domain (unknown origin) at 0.01 to 50 uM by SPR spectroscopy.

The target of data set [21] is Rho guanine nucleotide exchange factor TIAM1 (Homo sapiens) (UniProt Q13009). Description: Binding affinity to TIAM1 PH-domain (unknown origin) at 0.01 to 50 uM by SPR spectroscopy.
Rho guanine nucleotide exchange factor TIAM1 (Homo sapiens), sequence (Q13009 whole entry): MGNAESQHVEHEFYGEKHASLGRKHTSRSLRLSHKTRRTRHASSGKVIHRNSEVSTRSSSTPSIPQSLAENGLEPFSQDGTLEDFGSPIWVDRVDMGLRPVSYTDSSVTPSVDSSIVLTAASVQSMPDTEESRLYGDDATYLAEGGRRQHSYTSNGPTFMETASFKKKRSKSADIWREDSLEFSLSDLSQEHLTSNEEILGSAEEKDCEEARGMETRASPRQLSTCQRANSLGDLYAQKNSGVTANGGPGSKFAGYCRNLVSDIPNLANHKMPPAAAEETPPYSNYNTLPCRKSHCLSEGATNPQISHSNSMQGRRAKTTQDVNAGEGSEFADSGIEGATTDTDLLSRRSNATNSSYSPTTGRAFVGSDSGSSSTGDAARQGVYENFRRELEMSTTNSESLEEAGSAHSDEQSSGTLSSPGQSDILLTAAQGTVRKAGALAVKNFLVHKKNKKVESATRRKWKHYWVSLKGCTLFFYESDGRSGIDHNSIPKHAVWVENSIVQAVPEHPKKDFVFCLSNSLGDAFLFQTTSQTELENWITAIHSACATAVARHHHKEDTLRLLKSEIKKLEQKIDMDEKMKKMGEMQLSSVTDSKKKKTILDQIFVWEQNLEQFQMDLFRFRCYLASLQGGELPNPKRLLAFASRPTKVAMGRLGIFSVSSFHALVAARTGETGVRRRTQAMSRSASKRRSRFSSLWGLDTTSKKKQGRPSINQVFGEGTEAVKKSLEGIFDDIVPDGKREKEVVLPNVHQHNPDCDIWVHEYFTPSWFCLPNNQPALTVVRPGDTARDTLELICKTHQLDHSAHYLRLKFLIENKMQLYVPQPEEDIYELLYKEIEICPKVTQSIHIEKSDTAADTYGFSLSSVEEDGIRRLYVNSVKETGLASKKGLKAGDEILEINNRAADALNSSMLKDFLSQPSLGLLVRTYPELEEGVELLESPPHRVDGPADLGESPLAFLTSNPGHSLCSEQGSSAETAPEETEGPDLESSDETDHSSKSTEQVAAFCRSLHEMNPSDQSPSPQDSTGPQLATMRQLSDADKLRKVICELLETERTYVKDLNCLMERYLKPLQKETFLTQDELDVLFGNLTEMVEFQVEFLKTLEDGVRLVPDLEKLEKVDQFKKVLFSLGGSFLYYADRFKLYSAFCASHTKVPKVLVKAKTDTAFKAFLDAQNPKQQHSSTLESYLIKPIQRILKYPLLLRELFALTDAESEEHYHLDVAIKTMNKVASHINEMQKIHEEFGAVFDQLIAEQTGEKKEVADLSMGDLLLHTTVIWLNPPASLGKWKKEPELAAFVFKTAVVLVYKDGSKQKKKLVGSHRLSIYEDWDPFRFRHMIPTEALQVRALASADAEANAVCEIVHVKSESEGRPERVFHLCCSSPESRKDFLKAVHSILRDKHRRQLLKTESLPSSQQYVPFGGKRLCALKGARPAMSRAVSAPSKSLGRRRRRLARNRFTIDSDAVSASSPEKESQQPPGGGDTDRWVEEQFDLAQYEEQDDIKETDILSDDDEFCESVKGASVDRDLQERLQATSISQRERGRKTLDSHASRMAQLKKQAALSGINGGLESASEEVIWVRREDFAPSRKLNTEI
The species entered for data set [22] is Homo sapiens. Description: Selectivity index, ratio of binding affinity to AKT PH-domain (unknown origin) by SPR spectroscopy to binding affinity to CNKSR1 PH-domain (unknown origin) by SPR spectroscopy.
The species entered for data set [23] is Homo sapiens. Briefly: Selectivity index, ratio of binding affinity to PDPK1 PH-domain (unknown origin) by SPR spectroscopy to binding affinity to CNKSR1 PH-domain (unknown origin) by SPR spectroscopy.
For data set [24], the species on record is Homo sapiens. Briefly: Selectivity index, ratio of binding affinity to TIAM1 PH-domain (unknown origin) by SPR spectroscopy to binding affinity to CNKSR1 PH-domain (unknown origin) by SPR spectroscopy.
Data set [25] addresses T4, Pleckstrin (Homo sapiens, UniProt P08567).
T4 sequence (P08567 whole entry): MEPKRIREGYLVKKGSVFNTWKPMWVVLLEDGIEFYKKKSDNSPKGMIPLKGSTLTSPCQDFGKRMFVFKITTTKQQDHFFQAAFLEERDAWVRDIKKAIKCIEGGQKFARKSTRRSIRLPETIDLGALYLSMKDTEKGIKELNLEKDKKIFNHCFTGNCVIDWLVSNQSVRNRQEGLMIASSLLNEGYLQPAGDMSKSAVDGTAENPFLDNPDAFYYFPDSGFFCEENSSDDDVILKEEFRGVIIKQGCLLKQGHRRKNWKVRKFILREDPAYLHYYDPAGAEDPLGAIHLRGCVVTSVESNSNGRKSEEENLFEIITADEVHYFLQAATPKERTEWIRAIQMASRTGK
Briefly: Binding affinity to PLEK PH-domain (unknown origin) at 0.01 to 50 uM by SPR spectroscopy.

Data set [26] can be described thus: Cmax in C57BL6 mouse plasma at 250 mg/kg, po dosed via gavage as single administration. It counts as ADME, organism-based. On the set-up: dose 250 mg/kg, route oral.
A short description of data set [27]: Half life in C57BL6 mouse at 250 mg/kg, po dosed via gavage as single administration. The data set is classed as ADME, organism-based. The following applies: in vivo.

The source made the active and inactive calls. The rule behind the calls is not given here.

RAC-alpha serine/threonine-protein kinase, sequence (P31749 whole entry): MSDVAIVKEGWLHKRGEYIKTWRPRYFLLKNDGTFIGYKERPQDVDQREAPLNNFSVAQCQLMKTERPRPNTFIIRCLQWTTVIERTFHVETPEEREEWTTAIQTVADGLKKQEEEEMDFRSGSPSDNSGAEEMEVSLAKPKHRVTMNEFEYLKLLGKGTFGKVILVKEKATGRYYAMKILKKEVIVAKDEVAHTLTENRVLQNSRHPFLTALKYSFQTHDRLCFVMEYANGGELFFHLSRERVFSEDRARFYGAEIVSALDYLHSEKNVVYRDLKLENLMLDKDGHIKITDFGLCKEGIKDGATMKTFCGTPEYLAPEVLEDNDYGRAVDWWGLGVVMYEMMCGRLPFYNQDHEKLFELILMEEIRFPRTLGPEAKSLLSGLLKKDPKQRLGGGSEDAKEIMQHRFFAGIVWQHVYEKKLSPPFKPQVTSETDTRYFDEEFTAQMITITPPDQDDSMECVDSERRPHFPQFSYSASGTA

As to `Nc1cccc(-c2cc(C(=O)O)c3cc(Cl)ccc3n2)c1`, in [1], the outcome was Active.

For the compound `Cc1ccc(-c2csc(Cn3nc(CC4OCCCO4)c4ccccc4c3=O)n2)cc1`, the half-life in data set [2] is 260 min. The IC50 (commonly the concentration needed to halve the response being measured) in [3] was 45 µM; in [4], 38 µM; in data set [5], greater than 100 µM; in [6] it was 37 µM. Further, the inhibition entry in data set [7], in [8], in data set [9], in data set [10], in [11] and in [12] was “Active” in each case. The TGI result in data set [13] and in data set [14] was “Active” throughout.

As for `CCNC(=O)Cc1nn(Cc2nc(-c3ccc(C)cc3)cs2)c(=O)c2ccccc12`, the half-life in data set [2] came to 28 min. Further, the TGI entry in data set [13] was “Active”.

As for `O=C(O)CCc1ccc(-c2ccc(Br)cc2)n1CCC(=O)O`, in data set [15] (read-out: Kd), the Kd (commonly the constant that tells how readily two partners part at equilibrium) was determined as 0.196 nM. In addition, in data set [1], the result was Active.

Turning to `Cc1ccc(-c2csc(Cn3nc(CC=O)c4ccccc4c3=O)n2)cc1`, in data set [2], the half-life was 35 min.

For the compound `CC(=O)Nc1cccc(-n2nnc(SCC(=O)c3cc(-c4ccccc4)no3)n2)c1`, the “growth inhibition (GI)” value in data set [16], in data set [17], in data set [18] and in [19] was “Active” each time. Besides, the result in data set [1], in [20] and in data set [21] was inactive. The Ratio in data set [22], in data set [23] and in data set [24] was 50 to 100 in each case.

As for `CCOC(=O)/C=C/c1c(O)c(OC)cc(NS(=O)(=O)c2cccs2)c1SC`, the equilibrium dissociation constant (Kd) in data set [25] amounted to 300 µM.

As to `Cc1c(Cl)ccc2c(C(=O)O)cc(-c3cccnc3)nc12`, the result in [1] was Active.

On to `Cc1ccc(-c2nc(SCC(=O)O)c3c(=O)n(C)c(=O)n(C)c3n2)cc1`, for which the Kd in data set [15] (read-out: Kd) was found to be 1010 nM; in data set [1] (read-out: Kd) it was 1280 nM.

For `O=C(O)COc1cc(OCC(=O)O)c2c3c(c(=O)oc2c1)CCCC3`, the Kd in data set [15] (read-out: Kd) was found to be 1130 nM. Besides, the outcome in [1] was Active.

Turning to `Cc1ccc(-c2csc(Cn3nc(CC(=O)O)c4ccccc4c3=O)n2)cc1`, the values for the half-life in [2] and in [27] were 72 min and 780 min, respectively. Besides, the peak level in [26] (Cmax) was 230 µM. Further, the IC50 in [3], in data set [4], in data set [5] and in data set [6] was greater than 100 µM in each case. Further, the inhibition result in [10], in [11] and in data set [12] was “Active” in each case.

Consider `O=C(O)c1ccc2c(c1)C1C=CCC1C(C(=O)O)N2` (stereo not drawn), for which the results for the equilibrium dissociation constant (Kd) in [15] (read-out: Kd) and in data set [1] (read-out: Kd) were 5340 nM and 0.474 nM, respectively.

For the compound `Cc1ccc(-c2csc(Cn3nc(CC4OCC(=O)O4)c4ccccc4c3=O)n2)cc1` (stereo not drawn), the IC50 in data set [3] is 40 µM; in [4], 56 µM; in data set [5], greater than 100 µM; in data set [6] it was 34 µM. The inhibition entry in data set [10], in [11] and in data set [12] was “Active” in each case.

As to `Cc1ccc(-c2csc(Cn3nc(Cc4nccs4)c4ccccc4c3=O)n2)cc1`, in [2], the half-life turned out to be 245 min. Also, the IC50 in [3] stood at 46 µM; in data set [4], 49 µM; in data set [5], 26 µM; in [6] it was 28 µM. Moreover, the inhibition result in [10], in data set [11] and in data set [12] was “Active” throughout.

Consider `COc1c(/C=C/C(=O)O)cc(NS(=O)(=O)c2cccs2)c2c1OCO2`, for which the Kd entry in [15] and in data set [1] was “Not Active” in each case.

Turning to `Cc1ccc(-c2csc(Cn3nc(CC(=O)N4CCN(C)CC4)c4ccccc4c3=O)n2)cc1`, the half-life in data set [2] stood at 327 min.

In the case of `O=C(O)CSc1cc(NS(=O)(=O)c2cccs2)c2ccccc2c1O`, in data set [15] (read-out: Kd), the Kd came out at 3640 nM. For the same compound, the outcome in data set [1] was Active. For the same compound, the IC50 in data set [3] is 13 µM; in data set [4] it was 7 µM; in data set [5] it was 34 µM; in data set [6], 11 µM.

`COc1ccc(OC)c(-c2cc(C(=O)O)c3nc(C)[nH]c3n2)c1`: in [1], the result was Active.

In data set [25], `CCOC(=O)/C=C/c1cc(NS(=O)(=O)c2cccs2)c2c(c1O)OCO2` returned a Kd of 261 µM.

Values taken from ChEMBL document CHEMBL4419164, “Methods and compositions for inhibiting cnksr1” (2018).
